Consider one compound from EP0968651A1, “Pesticidal method and composition” (RHONE-POULENC A[…]., priority 1998, dated 2000).

In this assay the test system is vine weevil. The experiment in a line: Drench treatments of potted Fuchsia triphylla hybrid cv. Koralle infested with vine weevil eggs (curative). In kind it is in vivo. Conditions: curative drench treatment; after 6 months. The procedure: In 20-replicate tests, Fuchsia triphylla hybrid cv. Koralle was infested with 15 eggs per pot of vine weevil. Compound A in the form of an 80% water dispersible granule (Regent 800 WG) was suspended in water and added to each pot at the indicated rate per surface area of the pot at various dilutions. After 6 months, the trials were assessed.

`N#Cc1nn(-c2c(Cl)cc(C(F)(F)F)cc2Cl)c(N)c1[S+]([O-])C(F)(F)F` (stereo not shown) [Compound A, 5-amino-1-(2,6-dichloro 4-trifluoromethylphenyl) 4-trifluoromethylsulfinyl-3-cyanopyrazole]: the “protection of the plants compared with fonofos” value is listed as “protected the plants substantially better than the commercial standard fonofos”.
